Measured values taken from patent US7951954B2, “Bezothiazol derivatives as Beta2 adrenoreceptor agonists” (AstraZeneca AB, priority 2006, dated 2011).
Counter-ions that a name gives are not always drawn. Like-named read-outs stand apart in the source and are kept apart here.

Key:
Adrenergic β2 = target: T1, Adrenergic β2 (Homo sapiens, UniProt P07550); assay: Adrenergic β2 mediated cAMP production in H292 cells (AlphaScreen cAMP detection); assay type: cell-based; details: for EC50: cAMP production in H292 cells, 300 μM rolipram, 10 minutes with compound, read-out: β2 pEC50 (converted)
T1 construct: endogenous in cells; host or cells: H292 cells
Experimental: Adrenergic β2 Mediated cAMP Production
H292 cells were grown in RPMI (Roswell Park Memorial Institute) medium containing, 10% (v/v) FBS (foetal bovine serum) and 2 mM L-glutamine. Cells were grown in 225 cm2 flasks containing 25 mL media in a humidified incubator at 37° C., 5% CO2. Cells were harvested from the flask and passaged at a 1 in 10 dilution once per week.
The media from flasks containing H292 cells was removed, rinsed with 10 mL PBS phosphate buffered saline) and replaced with 10 mL Accutase™ cell detachment solution. Flasks were incubated for 15 minutes in a humidified incubator at 37° C., 5% CO2. The cell suspension was counted and the cells re-suspended in RPMI media (containing 10% (v/v) FBS and 2 mM L-glutamine) at 0.05×10^6 cells per mL. 5000 cells in 100 μL were added to each well of a tissue-culture-treated 96-well plate and the cells incubated overnight in a humidified incubator at 37° C., 5% CO2. The culture media was removed, washed twice with 100 μL assay buffer and replaced with 50 μL assay buffer. Cells were rested at room temperature for 20 minutes after which time 25 μL of rolipram (1.2 mM made up in assay buffer containing 2.4% (v/v) dimethylsulphoxide) was added. Cells were incubated with rolipram for 10 minutes after which time test compounds (made up as ×4 concentrated stocks in assay buffer containing 4% (v/v) dimethylsulphoxide) were added and the cells were incubated for 10 minutes at room temperature. Final rolipram concentration in the assay was 300 μM and final vehicle concentration was 1.6% (v/v) dimethylsulphoxide. The reaction was stopped by removing supernatants, washing once with 100 μL assay buffer and replacing with 50 μL lysis buffer. The cell monolayer was frozen at −80° C. for 30 minutes (or overnight).
The concentration of cAMP (cyclic adenosine monophosphate) in the cell lysate was determined using the AlphaScreen™ methodology. The frozen cell plate was thawed for 20 minutes on a plate shaker then 10 μL of the cell lysate was transferred to a 96-well white plate. 40 μL of mixed AlphaScreen™ detection beads (containing equal volumes of donor beads (pre-incubated with biotinylated cAMP in the dark for 30 minutes) and acceptor beads), was added to each well and the plate incubated at room temperature for 10 hours in the dark. The AlphaScreen™ signal was measured using an EnVision spectrophotometer (Perkin-Elmer Inc.) with the recommended manufacturer's settings. cAMP concentrations were determined by reference to a calibration curve determined in the same experiment using standard cAMP concentrations (made up in lysis buffer in a 96-well tissue-culture-treated plate and frozen/thawed alongside the test samples) and detected using the same protocol. Concentration response curves for agonists were constructed to determine both the pEC50 and Intrinsic Activity.

[1] = target: T2, recombinant human adrenergic beta 1 receptors (Homo sapiens, UniProt P08588); assay: Adrenergic β1 selectivity assay, [125I]-Iodocyanopindolol binding to membranes; details: inhibition of [125I]-Iodocyanopindolol binding, read-out: β1 pEC50 (converted)
T2 construct: purchased Euroscreen
Experimental: Membranes containing recombinant human adrenergic beta 1 receptors were obtained from Euroscreen. These were diluted in Assay Buffer (50 mM HEPES, 1 mM EDTA, 120 mM NaCl, 0.1% gelatin, pH 7.4) to provide a final concentration of membranes that gave a clear window between maximum and minimum specific binding.
(§1) Assays were performed in U-bottomed 96-well polypropylene plates. 10 μL [^125I]-Iodocyanopindolol (0.036 nM final concentration) and 10 μL of test compound (10× final concentration) were added to each test well. For each assay plate 8 replicates were obtained for [^125I]-Iodocyanopindolol binding in the presence of 10 μL vehicle (10% (v/v) DMSO in Assay Buffer; defining maximum binding) or 10 μL Propranolol (10 μM final concentration; defining non-specific binding (NSB)). Membranes were then added to achieve a final volume of 100 μL. The plates were incubated for 2 hours at room temperature and then filtered onto PEI coated GF/B filter plates, pre-soaked for 1 hour in Assay Buffer, using a 96-well plate Tomtec cell harvester. Five washes with 250 μL wash buffer (50 mM HEPES, 1 mM EDTA, 120 mM NaCl, pH 7.4) were performed at 4° C. to remove unbound radioactivity. The plates were dried then sealed from underneath using Packard plate sealers and MicroScint-O (50 μL) was added to each well. The plates were sealed (TopSeal A) and filter-bound radioactivity was measured with a scintillation counter (TopCount, Packard BioScience) using a 3-minute counting protocol.
(§2) Total specific binding (B0) was determined by subtracting the mean NSB from the mean maximum binding. NSB values were also subtracted from values from all other wells.

[2] = target: T3, recombinant human α1D receptor (Homo sapiens, UniProt P25100); assay: Adrenergic α1D selectivity assay, [3H]-prazosin binding to HEK293 membranes; details: inhibition of [3H]-prazosin binding, HEK293 membranes with recombinant human α1D; read-out: α1D pEC50 (converted)
T3 construct: expressed in transfected cells; host or cells: HEK293
T3 sequence (P25100 1-572): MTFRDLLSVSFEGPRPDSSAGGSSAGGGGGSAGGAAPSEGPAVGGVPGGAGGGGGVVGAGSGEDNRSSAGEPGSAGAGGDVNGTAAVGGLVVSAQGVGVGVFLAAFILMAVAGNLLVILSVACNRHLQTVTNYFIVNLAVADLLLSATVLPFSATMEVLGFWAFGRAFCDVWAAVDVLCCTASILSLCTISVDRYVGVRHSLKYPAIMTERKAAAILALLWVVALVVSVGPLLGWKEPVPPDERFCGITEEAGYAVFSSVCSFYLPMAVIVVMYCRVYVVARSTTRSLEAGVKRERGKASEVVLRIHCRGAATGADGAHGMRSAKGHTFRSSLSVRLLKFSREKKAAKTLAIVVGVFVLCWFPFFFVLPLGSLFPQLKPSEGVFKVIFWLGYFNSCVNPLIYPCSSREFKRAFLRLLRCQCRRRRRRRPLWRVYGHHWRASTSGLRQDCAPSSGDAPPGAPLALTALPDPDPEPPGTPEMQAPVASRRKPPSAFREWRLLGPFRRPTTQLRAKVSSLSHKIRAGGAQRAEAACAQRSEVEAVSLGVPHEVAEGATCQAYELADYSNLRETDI
Experimental: These were diluted in Assay Buffer (50 mM HEPES, 1 mM EDTA, 0.1% gelatin, pH 7.4) to provide a final concentration of membranes that gave a clear window between maximum and minimum specific binding.
as §1, with “10 μL [^125I]-Iodocyanopindolol (0.036 nM final concentration) and 10 μL of test compound (10× final concentration) were added to each test well.” left out, “[^3H]-prazosin” for “[^125I]-Iodocyanopindolol”, “BMY7378” for “Propranolol”, “EDTA,” for “EDTA, 120 mM NaCl,”
as §2

[3] = fraction relative to the maximum activity determined for formoterol in each experiment, H292 cells, cAMP

T2 sequence (P08588 whole entry): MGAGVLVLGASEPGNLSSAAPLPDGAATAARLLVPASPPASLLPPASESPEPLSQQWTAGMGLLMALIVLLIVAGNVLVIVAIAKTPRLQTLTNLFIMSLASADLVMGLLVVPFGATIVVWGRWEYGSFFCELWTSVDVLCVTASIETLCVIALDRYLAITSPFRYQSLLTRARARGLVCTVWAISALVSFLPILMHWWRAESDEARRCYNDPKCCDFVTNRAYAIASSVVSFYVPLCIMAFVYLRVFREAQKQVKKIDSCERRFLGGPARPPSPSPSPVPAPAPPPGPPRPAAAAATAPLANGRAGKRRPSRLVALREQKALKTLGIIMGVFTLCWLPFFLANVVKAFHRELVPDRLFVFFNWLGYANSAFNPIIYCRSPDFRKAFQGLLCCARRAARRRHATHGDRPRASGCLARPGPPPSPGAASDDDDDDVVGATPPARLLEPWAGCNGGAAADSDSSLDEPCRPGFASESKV
T1 sequence (P07550 whole entry): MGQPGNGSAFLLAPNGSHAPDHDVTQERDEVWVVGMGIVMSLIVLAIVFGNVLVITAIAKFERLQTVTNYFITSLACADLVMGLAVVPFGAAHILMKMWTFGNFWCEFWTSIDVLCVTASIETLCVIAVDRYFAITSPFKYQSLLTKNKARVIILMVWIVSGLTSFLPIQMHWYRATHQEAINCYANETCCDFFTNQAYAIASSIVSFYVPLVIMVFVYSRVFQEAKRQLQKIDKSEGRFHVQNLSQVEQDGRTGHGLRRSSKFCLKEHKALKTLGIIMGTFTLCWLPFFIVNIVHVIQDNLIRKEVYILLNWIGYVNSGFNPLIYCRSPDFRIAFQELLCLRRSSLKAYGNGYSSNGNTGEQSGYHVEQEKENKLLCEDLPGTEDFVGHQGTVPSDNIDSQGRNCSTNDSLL

| Intrinsic Activity (Adrenergic β2; [3]) | EC50 (Adrenergic β2) | SMILES | EC50 [1] | EC50 [2] | Intrinsic Activity (Adrenergic β2) |
| --- | --- | --- | --- | --- | --- |
|  |  | O=c1[nH]c2c(O)ccc([C@@H](O)CNCCc3cccc(CNCc4ccccc4Cl)c3)c2s1 [Example 3, 7-[2-(2-{3-[(2-Chloro-benzylamino)-methyl]-phenyl}-ethylamino)-1R-hydroxy-ethyl]-4-hydroxy-3H-benzothiazol-2-one bis-trifluoroacetate salt] | 10 nM | 158 nM | 0.9 |
| 1.0 | 0.316 nM | O=c1[nH]c2c(O)ccc([C@@H](O)CNCCc3cccc(CN[C@@H]4C[C@H]4c4ccc(F)cc4)c3)c2s1 [Example 10, 7-{2-[2-(3-{[2S-(4-Fluoro-phenyl)-cycloprop-1R-ylamino]-methyl}-phenyl)-ethylamino]-1R-hydroxy-ethyl}-4-hydroxy-3H-benzothiazol-2-one bis-trifluoroacetate salt] | 200 nM | 316 nM |  |
|  |  | CC(Cc1cccc(CNCCc2c(Cl)cccc2Cl)c1)NC[C@H](O)c1ccc(O)c2[nH]c(=O)sc12 (stereo partly drawn) [Example 15, 7-{2-[2-(3-{[2-(2,6-Dichloro-phenyl)-ethylamino]-methyl}-phenyl)-1-methyl-ethylamino]-1R-hydroxy-ethyl}-4-hydroxy-3H-benzothiazol-2-one bis-trifluoroacetate salt] | 15.8 nM | 39.8 nM | 0.8 |
|  |  | O=c1[nH]c2c(O)ccc([C@@H](O)CNCCc3ccc(CNCCc4ccccn4)cc3)c2s1 [Example 22, 4-Hydroxy-7-[1R-hydroxy-2-(2-{4-[(2-(2-pyridyl)ethylamino)methyl]phenyl}-ethylamino)ethyl]-3H-benzothiazol-2-one tris-trifluoroacetate salt] | 794 nM | 25.1 nM | 1.0 |
|  |  | COc1ccccc1CNCc1cccc(CCNC[C@H](O)c2ccc(O)c3[nH]c(=O)sc23)c1 [Example 36, 4-Hydroxy-7-[1R-hydroxy-2-(2-{3-[(2-methoxy-benzylamino)-methyl]-phenyl}-ethylamino)-ethyl]-3H-benzothiazol-2-one bis-trifluoroacetate salt] | 50.1 nM | 200 nM | 0.8 |
| 0.8 | 2.51 nM | O=c1[nH]c2c(O)ccc([C@@H](O)CNCCc3cccc(CNCCc4cccc[n+]4[O-])c3)c2s1 [Example 40, 4-Hydroxy-7-{1R-hydroxy-2-[2-(3-{[2-(1-oxy-pyridin-2-yl)-ethylamino]-methyl}-phenyl)-ethylamino]-ethyl}-3H-benzothiazol-2-one bis-trifluoroacetate salt] | 39.8 nM | 100 nM |  |
|  |  | COc1ccccc1CNCCc1cccc(CCNC[C@H](O)c2ccc(O)c3[nH]c(=O)sc23)c1 [Example 45, 4-Hydroxy-7-[1R-hydroxy-2-(2-{3-[2-(2-methoxy-benzylamino)-ethyl]-phenyl}-ethylamino)-ethyl]-3H-benzothiazol-2-one bis-hydrochloride salt] | 63.1 nM | 25.1 nM | 1.0 |
| 0.9 | 0.631 nM | CC(C)NCc1ccc(CCNC[C@H](O)c2ccc(O)c3[nH]c(=O)sc23)cc1 [Example 53, 4-Hydroxy-7-{1R-hydroxy-2-[2-(4-isopropylaminomethyl)phenyl]ethylamino}-ethyl)-3H-benzothiazol-2-one bis-trifluoroacetate salt] | 251 nM | 398 nM |  |
|  |  | O=c1[nH]c2c(O)ccc([C@@H](O)CNCCc3cccc(CNCc4ccccn4)c3)c2s1 [Example 61, 4-Hydroxy-7-{1R-hydroxy-2-[2-(3-{[(pyridin-2-ylmethyl)-amino]-methyl}-phenyl)-ethylamino]-ethyl}-3H-benzothiazol-2-one bis-hydrochloride salt] | 79.4 nM | 316 nM | 0.9 |

| SMILES | Intrinsic Activity (Adrenergic β2; [3]) | EC50 (Adrenergic β2) | EC50 [1] | EC50 [2] | Intrinsic Activity (Adrenergic β2) |
| --- | --- | --- | --- | --- | --- |
| O=c1[nH]c2c(O)ccc([C@@H](O)CNCCc3cccc(CNCCc4c(Cl)cccc4Cl)c3)c2s1 [Example 1, 7-{2-[2-(3-{[2-(2,6-Dichloro-phenyl)-ethylamino]-methyl}-phenyl)-ethylamino]-1R-hydroxy-ethyl}-4-hydroxy-3H-benzothiazol-2-one bis-trifluoroacetate salt] | 0.8 |  | 12.6 nM | 63.1 nM |  |
| COCCNCc1cccc(CCNC[C@H](O)c2ccc(O)c3[nH]c(=O)sc23)c1 [Example 13, 4-Hydroxy-7-[1R-hydroxy-2-(2-{3-[(2-methoxy-ethylamino)-methyl]-phenyl}-ethylamino)-ethyl]-3H-benzothiazol-2-one di-hydrochloride salt] |  | 2 nM | 158 nM | 501 nM | 1.0 |
| O=c1[nH]c2c(O)ccc([C@@H](O)CNCCc3cccc(CN4CCCC4)c3)c2s1 [Example 51, 4-Hydroxy-7-{1R-hydroxy-2-[2-(3-pyrrolidin-1-ylmethyl-phenyl)-ethylamino]-ethyl}-3H-benzothiazol-2-one bis-hydrochloride salt] | 1.1 | 1 nM | 1260 nM | 1000 nM |  |
